Assay results taken from ChEMBL document CHEMBL1153884, “Oligonucleotide-polyamine conjugates: influence of length and position of 2'-attached polyamines on duplex stability and antisense effect” (2009).

Legend:
Nucleic Acid [1] = assay: Duplex stability of RNA counter strand assessed as melting temperature; type: nucleic-acid assay
Nucleic Acid [2] = assay: Duplex stability of DNA counter strand assessed as melting temperature; type: nucleic-acid assay

Row | SMILES | Tm (Nucleic Acid [1]) [°C] | Tm (Nucleic Acid [2]) [°C]
1 | Cc1cn([C@H]2C[C@H](OP(=O)(O)OC[C@H]3O[C@@H](n4cnc5c(N)ncnc54)[C@H](O)[C@@H]3OP(=O)(O)OC[C@H]3O[C@@H](n4ccc(N)nc4=O)[C@H](O)[C@@H]3OP(=O)(O)OC[C@H]3O[C@@H](n4ccc(N)nc4=O)[C@H](O)[C@@H]3OP(=O)(O)OC[C@H]3O[C@@H](n4cnc5c(=O)[nH]c(N)nc54)[C@H](O)[C@@H]3OP(=O)(O)OC[C@H]3O[C@@H](n4ccc(N)nc4=O)[C@H](O)[C@@H]3OP(=O)(O)OC[C@H]3O[C@@H](n4cnc5c(=O)[nH]c(N)nc54)[C@H](O)[C@@H]3OP(=O)(O)OC[C@H]3O[C@@H](n4cc(C)c(=O)[nH]c4=O)C[C@@H]3OP(=O)(O)OC[C@H]3O[C@@H](n4cnc5c(=O)[nH]c(N)nc54)[C@H](O)[C@@H]3OP(=O)(O)OC[C@H]3O[C@@H](n4ccc(N)nc4=O)[C@H](O)[C@@H]3OP(=O)(O)OC[C@H]3O[C@@H](n4cnc5c(=O)[nH]c(N)nc54)[C@H](O)[C@@H]3OP(=O)(O)OC[C@H]3O[C@@H](n4cnc5c(N)ncnc54)[C@H](O)[C@@H]3OP(=O)(O)OC[C@H]3O[C@@H](n4ccc(N)nc4=O)[C@H](O)[C@@H]3OP(=O)(O)OC[C@H]3O[C@@H](n4ccc(N)nc4=O)[C@H](O)[C@@H]3OP(=O)(O)OC[C@H]3O[C@@H](n4ccc(N)nc4=O)[C@H](O)[C@@H]3OP(=O)(O)OC[C@H]3O[C@@H](n4cc(C)c(=O)[nH]c4=O)C[C@@H]3OP(=O)(O)OC[C@H]3O[C@@H](n4ccc(N)nc4=O)[C@H](O)[C@@H]3OP(=O)(O)OC[C@H]3O[C@@H](n4ccc(=O)[nH]c4=O)[C@H](NCCCNCCCCNCCCN)[C@@H]3O)[C@@H](CO)O2)c(=O)[nH]c1=O | 63 | 80
2 | Cc1cn([C@@H]2O[C@H](CO)CN2c2ncnc3c2ncn3[C@@H]2O[C@H](COP(=O)(O)O[C@H]3[C@@H](O)[C@H](n4cnc5c(=O)[nH]c(N)nc54)O[C@@H]3COP(=O)(O)O[C@H]3[C@@H](O)[C@H](n4ccc(N)nc4=O)O[C@@H]3COP(=O)(O)O[C@H]3[C@@H](O)[C@H](n4cnc5c(=O)[nH]c(N)nc54)O[C@@H]3COP(=O)(O)O[C@H]3C[C@H](n4cc(C)c(=O)[nH]c4=O)O[C@@H]3COP(=O)(O)O[C@H]3[C@@H](O)[C@H](n4cnc5c(=O)[nH]c(N)nc54)O[C@@H]3COP(=O)(O)O[C@H]3[C@@H](O)[C@H](n4ccc(N)nc4=O)O[C@@H]3COP(=O)(O)O[C@H]3[C@@H](O)[C@H](n4cnc5c(=O)[nH]c(N)nc54)O[C@@H]3COP(=O)(O)O[C@H]3[C@@H](O)[C@H](n4ccc(N)nc4=O)O[C@@H]3COP(=O)(O)O[C@H]3[C@@H](O)[C@H](n4ccc(N)nc4=O)O[C@@H]3COP(=O)(O)O[C@H]3[C@@H](O)[C@H](n4cnc5c(N)ncnc54)O[C@@H]3COP(=O)(O)O[C@H]3[C@@H](NCCCNCCCCNCCCN)[C@H](n4ccc(=O)[nH]c4=O)O[C@@H]3CO)[C@@H](OP(=O)(O)OC[C@H]3O[C@@H](n4ccc(N)nc4=O)[C@H](O)[C@@H]3OP(=O)(O)OC[C@H]3O[C@@H](n4ccc(N)nc4=O)[C@H](O)[C@@H]3OP(=O)(O)OC[C@H]3O[C@@H](n4ccc(N)nc4=O)[C@H](O)[C@@H]3OP(=O)(O)OC[C@H]3O[C@@H](n4cc(C)c(=O)[nH]c4=O)C[C@@H]3OP(=O)(O)OC[C@H]3O[C@@H](n4ccc(N)nc4=O)[C@H](O)[C@@H]3OP(=O)(O)OC[C@H]3O[C@@H](n4ccc(=O)[nH]c4=O)[C@H](NCCCNCCCCNCCCN)[C@@H]3O)[C@H]2O)c(=O)[nH]c1=O | 61.8 | 79.7
